Key:
Assay type in all cases: in vivo, rat
[1] = system: lenses of Wistar rats; test: Therapeutic experiment, state of crystalline lenses, Wistar rats aged 10.5 months; conditions: examination after therapy course at the age of 12 months, 50 nmol per kg of body weight, score 0-3
Description: The study was carried out using OXYS and Wistar male rats. The animals were housed in cages (five rats per a cage) and kept under standard laboratory conditions (at 22±1° C., 60% relative humidity, and natural light), provided with a standard rodent diet (PK-120-1, Ltd. ‘Laboratorsnab’, Russia), and given water ad libitum. At the age of 1.5 months after preliminary pupil dilation with 1% tropicamide ophthalmic the rats were examined by ophthalmologist. […]
(§1) The lens state was evaluated according to the classification system accepted in clinical practice (L. A. Katsnelson, T. I. Forofonova, A. Ya. Bunin, 1990) with grades ranging from 0 to 3: score 0—the lens is clear; score 1—spotted weak cloudiness; score 2—multiple spots of cloudiness and score 3—intense cloudiness of the lens core and nucleus. The presence and the degree of spotted changes in macular area were evaluated according to accepted classification: score 0—no changes; score 1—the 1st stage of pathology, when small yellow deposits, known as “drusen” appear underneath the macula; score 2—2nd stage, the development of prominent yellow spot with sharp edges with the size of 0.5 to 1 of the disk diameter (exudative detachment of pigment retinal epithelium); and score 3—3rd stage with extensive hemorrhage into macular area. […]

[2] = system: macular dystrophy in OXYS rats; test: Prophylactic effect on macular dystrophy (changes in macular area of retina), ophthalmoscopic examination of OXYS rats; conditions: for changes in the macular area of the retina (macular dystrophy morbidity): after oral course from 1.5 to 3 months, % of eyes/cases; for changes in the macular area of the retina (macular dystrophy morbidity) / macular dystrophy newly affected during the course (10% already affected at 1.5 months): SkQ1 or KBr 50 nmol per kg; for 2nd stage of macular degeneration: KBr: % of these changes
Description: (§2) The study was carried out using OXYS and Wistar male rats. The animals were housed in cages (five rats per a cage) and kept under standard laboratory conditions (at 22±1° C., 60% relative humidity, and natural light), provided with a standard rodent diet (PK-120-1, Ltd. ‘Laboratorsnab’, Russia), and given water ad libitum. At the age of 1.5 months after preliminary pupil dilation with 1% tropicamide ophthalmic the rats were examined by ophthalmologist. During the period from 1.5 to 3 months, which is critical for the development of pronounced changes in eye organ of OXYS rats, the animals were given either SkQ1 (50 nmol per kg of body weight), or KBr (50 nmol per kg of body weight) or vitamin E (alfa-tocopherol acetate, 20 mg per kg). We use Vitamin E for a comparison with test antioxidants. Animals received the compounds on a small piece of dried bread before a regular meal, and the control group of animals received the same piece of bread without any compound. After completing the course of antioxidants the animals were weighed and retested with ophthalmoscope. To avoid human factor in the evaluation of compound effects, the researcher who conducted the ophthalmoscopic examination was not told which of the animals received antioxidants.
(§3) The ophthalmoscopic examination was carried out using direct ophthalmoscope “Betta”, Germany. In selected animals under fluorotane narcosis (1-1.5 minutes) eyeground was photographed, fluorescent angiography with the use of “Opton” fundus-camera was conducted or crystalline lenses were examined by means of slitlamp “Opton SL30” using system of automatic image registration (biomicroscopic research).
(§4) The lens state was evaluated according to the classification system accepted in clinical practice (L. A. Katsnelson, T. I. Forofonova, A. Ya. Bunin, 1990) with grades ranging from 0 to 3: score 0—the lens is clear; score 1—spotted weak cloudiness; score 2—multiple spots of cloudiness and score 3—intense cloudiness of the lens core and nucleus. The presence and the degree of spotted changes in macular area were evaluated according to accepted classification: score 0—no changes; score 1—the 1st stage of pathology, when small yellow deposits, known as “drusen” appear underneath the macula; score 2—2nd stage, the development of prominent yellow spot with sharp edges with the size of 0.5 to 1 of the disk diameter (exudative detachment of pigment retinal epithelium); and score 3—3rd stage with extensive hemorrhage into macular area.
(§5) Statistical processing of the results was carried out using the factorial dispersive analysis (ANOVA/MANOVA, Statistica, 5) with post hoc comparison of group average (Newman-Keul test) considering genotype and preparation as independent factors.

[3] = system: macular dystrophy (retinopathy) in OXYS rats; test: Therapeutic effect on macular area of retina, OXYS rats aged 10.5 months; conditions: for pathological changes of retina, before vs after the therapy course / Changes of macular area of retina, grades (score): OXYS rats; for pathological changes of retina, before vs after the therapy course: 10.5 to 12 months, pair comparisons / comparison of average values; for Changes of macular area of retina, grades (score): examination after therapy course at the age of 12 months, 50 nmol per kg of body weight, score 0-3
Description: as §2, with “During the period from 1.5 to 3 months, which is critical for the development of pronounced changes in eye organ of OXYS rats, the animals were given either SkQ1 (50 nmol per kg of body weight), or KBr (50 nmol per kg of body weight) or vitamin E (alfa-tocopherol acetate, 20 mg per kg).” left out
as §3, §4, §5

[4] = system: cataract in OXYS rats; test: Therapeutic effect on state of crystalline lenses, OXYS rats aged 10.5 months; conditions: for pathological changes of lenses, before vs after the therapy course: 10.5 to 12 months, pair comparisons / comparison of average values; for Changes of lenses, grades (score): examination after therapy course at the age of 12 months, 50 nmol per kg of body weight, score 0-3
Description: as §2, with “[…],” for “During the period from 1.5 to 3 months,”
as §3, §4, §5

[5] = system: retina of Wistar rats; test: Therapeutic experiment, macular area of retina, Wistar rats aged 10.5 months; conditions: for Changes of macular area of retina, grades (score): Wistar rats, examination after therapy course at the age of 12 months, 50 nmol per kg of body weight, score 0-3
Description: as §2, with “by ophthalmologist. […], which is” for “by ophthalmologist. During the period from 1.5 to 3 months, which is”, “received antioxidants. […]” for “received antioxidants.”
as §1

[6] = system: cataract in OXYS rats; test: Prophylactic effect on cataract (lens changes), ophthalmoscopic examination of OXYS rats; conditions: for lens changes observed/registered (cataract morbidity): after oral course from 1.5 to 3 months, % of eyes/cases; for lens changes observed/registered (cataract morbidity) / cataract newly affected/added during the course (20% of eyes already affected at 1.5 months): SkQ1 or KBr 50 nmol per kg; for 2nd stage of cataract: KBr: % of total number of eyes, vitamin E: % of changes
Description: as §2, §3, §4, §5

[7] = OXYS rats at 3 months, after course from 1.5 to 3 months, SkQ1 50 nmol per kg
[8] = OXYS rats at 3 months, vitamin E 20 mg per kg
[9] = OXYS rats, 1.5 to 3 months, SkQ1 50 nmol per kg
[10] = one month after the end of SkQ1 administration, in contrast to the control group
[11] = OXYS rats after SkQ1 therapy course
[12] = OXYS rats, 1.5 to 3 months, vitamin E 20 mg per kg
[13] = OXYS rats at 3 months, after course from 1.5 to 3 months

Row | SMILES | Changes of lenses, grades (score) [1] [score] | changes in the macular area of the retina (macular dystrophy morbidity) [2, 8] [%] | macular dystrophy newly affected during the course (10% already affected at 1.5 months) ([2]; OXYS rats, 1.5 to 3 months) [%] | pathological changes of retina, before vs after the therapy course [3] | Changes of macular area of retina, grades (score) [3] [score] | pathological changes of lenses, before vs after the therapy course [4] | Changes of lenses, grades (score) [4] [score] | Changes of macular area of retina, grades (score) [5] [score] | lens changes observed/registered (cataract morbidity) [6, 8] [%] | cataract newly affected/added during the course (20% of eyes already affected at 1.5 months) [6, 12] [%] | 2nd stage of macular degeneration [2, 13] [%] | 2nd stage of cataract [6, 13] [%] | further results
1 | CC1=C(C)C(=O)C(CCCCCCCCCC[P+](c2ccccc2)(c2ccccc2)c2ccccc2)=CC1=O.[Br-] [SkQ1] | 0.54 ± 0.14 | 38 | 28 | much less pronounced | 0.32 ± 0.13 | much less pronounced | 0.41 ± 0.13 | 0.09 ± 0.06 | 46 | 26 | – | – | stage to which the macular changes corresponded [2, 7]: 1st stage of macular degeneration; macular dystrophy cases, times less than in the control group [2, 9]: 2.8 times; effect on macular dystrophy progression ([2]; OXYS rats, FIG. 4): essentially affected their progression; changes in the state of retina after the end of the course [2, 10]: no any changes; hemorrhages in retina [3, 11]: resolution of hemorrhages; ischemic centers in retina [3, 11]: reduction of quantity and area of ischemic centers; puffiness of retina [3, 11]: significant reduction of puffiness; animals with changes of retina appropriate to even the most initial stage of disease ([5]; Wistar rats supplemented with SkQ1, after 45 days): practically absent; stage to which the lens changes corresponded [6, 7]: 1st stage of cataract; cataract cases, times less than in the group supplemented with KBr [6, 9]: 2.8 times; effect on cataract progression ([6]; OXYS rats, FIG. 3): essentially affected their progression; changes in the state of crystalline lens after the end of the course [6, 10]: no any changes
2 | [Br-].[K+] [KBr, reference compound] | 0.5 ± 0.15 | 87 | 77 | no any changes | 1.13 ± 0.17 | authentically aggravated | 1.6 ± 0.23 | 0.25 ± 0.10 | 93 | 73 | 13 | 57 | –
3 | CC(=O)Oc1c(C)c(C)c2c(c1C)CCC(C)(CCC[C@H](C)CCC[C@H](C)CCCC(C)C)O2 (some centres unmarked) [vitamin E, alfa-tocopherol acetate] | – | 54 | – | – | – | – | – | – | 58 | 38 | 8 | 12 | macular changes, times less than in the control intact group [2, 12]: 1.5 times; cataract cases, times less than in the control intact group [6, 12]: 1.8 times

From patent US9572821B2, “Pharmaceutical compositions for preventing and treating eye pathologies” (MITOTECH SA, priority 2006, dated 2017)
